Assays:
[1] = test system: DIGSA; assay: Pre-emergence herbicidal action against DIGSA; format: in vivo, Digitaria sanguinalis; conditions: for pest or weed control at 20 g/ha / pest or weed control at 80 g/ha: Digitaria sanguinalis, 504 h
Summary of the method: (§1)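 Sandy loam pots, seeds covered with soil, then surface-treated with WP or EC formulations at 600–800 l/ha water plus 0.2% wetting agent. Greenhouse, 3 weeks. Percent damage vs untreated controls.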

[2] = test system: ALOMY; assay: Post-emergence herbicidal action against ALOMY; format: in vivo, Alopecurus myosuroides; conditions: dosage 20 g/ha, visual assessment about 3 weeks after treatment vs untreated controls; for pest or weed control at 20 g/ha: Alopecurus myosuroides, 504 h
Summary of the method: (§2)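 Visual % rating (0% = as untreated, 100% = dead) ~3 wk after spraying one-leaf-stage plants grown in sandy loam; WP/EC in water at 600–800 l/ha, 0.2% wetting agent.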

[3] = test system: ABUTH; assay: Post-emergence herbicidal action against ABUTH; format: in vivo, Abutilon theophrasti; conditions: visual assessment about 3 weeks after treatment vs untreated controls
Summary of the method: as §2

[4] = test system: VERPE; assay: Post-emergence herbicidal action against VERPE; format: in vivo, Veronica persica; conditions: 20 g/ha; for pest or weed control at 20 g/ha: Veronica persica, 504 h
Summary of the method: as §2

[5] = test system: SETVI; assay: Pre-emergence herbicidal action against SETVI; format: in vivo, Setaria viridis
Summary of the method: as §1

[6] = test system: DIGSA; assay: Post-emergence herbicidal action against DIGSA; format: in vivo, Digitaria sanguinalis
Summary of the method: as §2

[7] = test system: AMARE; assay: Post-emergence herbicidal action against AMARE; format: in vivo, Amaranthus retroflexus; conditions: 20 g/ha, visual assessment about 3 weeks after treatment, 100% = plants have died, 0% = like control plants; for pest or weed control at 20 g/ha: Amaranthus retroflexus, 504 h
Summary of the method: as §2

[8] = test system: SETVI; assay: Post-emergence herbicidal action against SETVI; format: in vivo, Setaria viridis
Summary of the method: as §2

[9] = test system: ECHCG; assay: Post-emergence herbicidal action against ECHCG; format: in vivo, Echinochloa crus-galli; conditions: for pest or weed control at 5 g/ha / pest or weed control at 20 g/ha: Echinochloa crus-galli, 504 h; for pest or weed control at 5 g/ha: dosage 5 g/ha
Summary of the method: as §2

[10] = test system: POLCO; assay: Pre-emergence herbicidal action against POLCO; format: in vivo, Polygonum convolvulus; conditions: dosage 80 g/ha; for pest or weed control at 80 g/ha: Fallopia convolvulus, 504 h
Summary of the method: as §1

[11] = test system: MATIN; assay: Post-emergence herbicidal action against MATIN; format: in vivo, Matricaria inodora
Summary of the method: as §2

[12] = test system: ALOMY; assay: Pre-emergence herbicidal action against ALOMY; format: in vivo, Alopecurus myosuroides; conditions: 80 g/ha, pre-emergence, scored visually after 3 weeks vs untreated controls (100% = plants have died, 0% = like control plants); for pest or weed control at 80 g/ha: Alopecurus myosuroides, 504 h
Summary of the method: as §1

[13] = test system: AVEFA; assay: Pre-emergence herbicidal action against AVEFA; format: in vivo, Avena fatua; conditions: 80 g/ha, pre-emergence; for pest or weed control at 80 g/ha: Avena fatua, 504 h
Summary of the method: as §1

[14] = test system: ABUTH; assay: Pre-emergence herbicidal action against ABUTH; format: in vivo, Abutilon theophrasti; conditions: for pest or weed control at 80 g/ha / pest or weed control at 20 g/ha: Abutilon theophrasti, 504 h; for pest or weed control at 20 g/ha: read-out: Pre-emergence action against ABUTH (herbicidal activity in percent)
Summary of the method: as §1

[15] = test system: PHBPU; assay: Pre-emergence herbicidal action against PHBPU; format: in vivo, Pharbitis purpurea; conditions: dosage 80 g/ha; for pest or weed control at 80 g/ha: Ipomoea purpurea, 504 h
Summary of the method: as §1

[16] = test system: LOLRI; assay: Pre-emergence herbicidal action against LOLRI; format: in vivo, Lolium rigidum; conditions: 80 g/ha; for pest or weed control at 80 g/ha: Lolium rigidum, 504 h
Summary of the method: as §1

[17] = test system: VIOTR; assay: Pre-emergence herbicidal action against VIOTR; format: in vivo, Viola tricolor
Summary of the method: as §1

[18] = test system: VERPE; assay: Pre-emergence herbicidal action against VERPE; format: in vivo, Veronica persica; conditions: for pest or weed control at 80 g/ha: Veronica persica, 504 h
Summary of the method: as §1

[19] = test system: MATIN; assay: Pre-emergence herbicidal action against MATIN; format: in vivo, Matricaria inodora; conditions: for pest or weed control at 20 g/ha / pest or weed control at 80 g/ha: Tripleurospermum inodorum, 504 h
Summary of the method: as §1

[20] = test system: ECHCG; assay: Pre-emergence herbicidal action against ECHCG; format: in vivo, Echinochloa crus-galli; conditions: 80 g/ha; for pest or weed control at 80 g/ha: Echinochloa crus-galli, 504 h
Summary of the method: as §1

[21] = test system: PHBPU; assay: Post-emergence herbicidal action against PHBPU; format: in vivo, Pharbitis purpurea
Summary of the method: as §2

[22] = test system: AMARE; assay: Pre-emergence herbicidal action against AMARE; format: in vivo, Amaranthus retroflexus; conditions: for pest or weed control at 20 g/ha / pest or weed control at 80 g/ha: Amaranthus retroflexus, 504 h
Summary of the method: as §1

[23] = test system: VIOTR; assay: Post-emergence herbicidal action against VIOTR; format: in vivo, Viola tricolor; conditions: Viola tricolor, 504 h, 20 g/ha
Summary of the method: as §2

[24] = 80 g/ha, scored visually after 3 weeks vs untreated controls (100% = plants have died, 0% = like control plants)
[25] = dosage 20 g/ha, scored visually after 3 weeks vs untreated controls, 100% = plants have died, 0% = like control plants
[26] = 20 g/ha, scored visually after 3 weeks vs untreated controls, 100% = plants have died, 0% = like control plants
[27] = Abutilon theophrasti, 504 h, dosage 20 g/ha
[28] = Setaria viridis, 504 h, dosage 80 g/ha
[29] = Digitaria sanguinalis, 504 h, 20 g/ha
[30] = Setaria viridis, 504 h, dosage 20 g/ha
[31] = Tripleurospermum inodorum, 504 h, dosage 20 g/ha
[32] = Viola tricolor, 504 h, dosage 80 g/ha
[33] = Ipomoea purpurea, 504 h, dosage 20 g/ha
[34] = 80 g/ha, scored visually after 3 weeks vs untreated controls, 100% = plants have died, 0% = like control plants

SMILES: CCn1nnnc1NC(=O)c1ccc(C(F)F)c(C(=O)NC(C)C2CC2)c1C (stereo not drawn) [Example 2-339]
- Pre-emergence action against DIGSA in % ([1]; dosage 20 g/ha): 100%
- Pre-emergence action against DIGSA in % ([1]; dosage 80 g/ha): 100%
- Post-emergence action against ALOMY in % [2]: 80%
- Post-emergence action against ABUTH in % ([3]; dosage 5 g/ha): 80%
- Post-emergence action against ABUTH in % ([3]; dosage 20 g/ha): 80%
- Post-emergence action against VERPE in % [4]: 80%
- Pre-emergence action against SETVI in % ([5]; dosage 80 g/ha): 100%
- Post-emergence action against DIGSA in % ([6]; 5 g/ha): 80%
- Post-emergence action against DIGSA ([6]; 20 g/ha): 90%
- Post-emergence action at 20 g/ha against AMARE in % [7]: 90%
- Post-emergence action against SETVI in % ([8]; dosage 20 g/ha): 100%
- Post-emergence action against ECHCG in % ([9]; dosage 20 g/ha): 90%
- Pre-emergence action against POLCO in % [10]: 80%
- Post-emergence action against MATIN in % ([11]; dosage 20 g/ha): 80%
- Pre-emergence action against ALOMY (herbicidal activity) [12]: 90%
- Pre-emergence action against AVEFA in % [13]: 80%
- Pre-emergence action against ABUTH (herbicidal activity) [14, 24]: 100%
- Pre-emergence action against ABUTH (herbicidal activity in percent) [14, 25]: 100%
- Pre-emergence action against PHBPU in % [15]: 80%
- Pre-emergence action against LOLRI in % [16]: 80%
- Pre-emergence action against VIOTR in % ([17]; dosage 20 g/ha): 100%
- Pre-emergence action against VIOTR in % ([17]; dosage 80 g/ha): 100%
- Pre-emergence action against VERPE in % ([18]; dosage 20 g/ha): 80%
- Pre-emergence action against VERPE in % ([18]; dosage 80 g/ha): 100%
- Pre-emergence action against MATIN in % ([19]; dosage 20 g/ha): 100%
- Pre-emergence action against MATIN in % ([19]; dosage 80 g/ha): 100%
- Pre-emergence action against ECHCG in % [20]: 100%
- Post-emergence action against PHBPU in % ([21]; dosage 5 g/ha): 90%
- Post-emergence action against PHBPU in % ([21]; dosage 20 g/ha): 90%
- Pre-emergence action against AMARE in % [22, 26]: 100%
- Pre-emergence action against AMARE in % [22, 24]: 100%

SMILES: Cc1c(C(=O)Nc2nnnn2C)ccc(C(F)(F)F)c1C(=O)NC(C)C [Example 1-33]
- pest or weed control at 20 g/ha ([1]; dosage 20 g/ha): 100%
- pest or weed control at 80 g/ha ([1]; dosage 80 g/ha): 100%
- pest or weed control at 20 g/ha [2]: 90%
- pest or weed control at 20 g/ha [3, 27]: 90%
- pest or weed control at 20 g/ha [4]: 80%
- pest or weed control at 80 g/ha [5, 28]: 100%
- pest or weed control at 20 g/ha [6, 29]: 90%
- pest or weed control at 20 g/ha [7]: 100%
- pest or weed control at 5 g/ha ([8]; Setaria viridis, 504 h, dosage 5 g/ha): 80%
- pest or weed control at 20 g/ha [8, 30]: 90%
- pest or weed control at 5 g/ha [9]: 80%
- pest or weed control at 20 g/ha ([9]; dosage 20 g/ha): 90%
- pest or weed control at 80 g/ha [10]: 90%
- pest or weed control at 5 g/ha ([11]; Tripleurospermum inodorum, 504 h, dosage 5 g/ha): 80%
- pest or weed control at 20 g/ha [11, 31]: 80%
- pest or weed control at 80 g/ha [12]: 100%
- pest or weed control at 80 g/ha [13]: 100%
- pest or weed control at 80 g/ha [14, 24]: 100%
- pest or weed control at 20 g/ha [14, 25]: 90%
- pest or weed control at 80 g/ha [15]: 100%
- pest or weed control at 80 g/ha [16]: 80%
- pest or weed control at 20 g/ha ([17]; Viola tricolor, 504 h, dosage 20 g/ha): 100%
- pest or weed control at 80 g/ha [17, 32]: 100%
- pest or weed control at 80 g/ha ([18]; dosage 80 g/ha): 100%
- pest or weed control at 20 g/ha [23]: 80%
- pest or weed control at 20 g/ha ([19]; dosage 20 g/ha): 100%
- pest or weed control at 80 g/ha ([19]; dosage 80 g/ha): 100%
- pest or weed control at 80 g/ha [20]: 100%
- pest or weed control at 20 g/ha [21, 33]: 80%
- pest or weed control at 20 g/ha [22, 26]: 100%
- pest or weed control at 80 g/ha [22, 34]: 100%

SMILES: CC(C)NC(=O)c1c(C(F)F)ccc(C(=O)Nc2nnnn2C)c1Cl [Example 1-155]
- pest or weed control at 20 g/ha ([1]; dosage 20 g/ha): 100%
- pest or weed control at 80 g/ha ([1]; dosage 80 g/ha): 100%
- pest or weed control at 20 g/ha [2]: 90%
- pest or weed control at 5 g/ha ([3]; Abutilon theophrasti, 504 h, dosage 5 g/ha): 80%
- pest or weed control at 20 g/ha [3, 27]: 90%
- pest or weed control at 20 g/ha [4]: 80%
- pest or weed control at 20 g/ha [5, 30]: 80%
- pest or weed control at 80 g/ha [5, 28]: 100%
- pest or weed control at 5 g/ha ([6]; Digitaria sanguinalis, 504 h, 5 g/ha): 90%
- pest or weed control at 20 g/ha [6, 29]: 90%
- pest or weed control at 20 g/ha [7]: 90%
- pest or weed control at 20 g/ha [8, 30]: 80%
- pest or weed control at 5 g/ha [9]: 90%
- pest or weed control at 20 g/ha ([9]; dosage 20 g/ha): 90%
- pest or weed control at 80 g/ha [10]: 90%
- pest or weed control at 20 g/ha [11, 31]: 80%
- pest or weed control at 80 g/ha [12]: 90%
- pest or weed control at 80 g/ha [13]: 90%
- pest or weed control at 80 g/ha [14, 24]: 100%
- pest or weed control at 20 g/ha [14, 25]: 100%
- pest or weed control at 80 g/ha [15]: 100%
- pest or weed control at 80 g/ha [16]: 90%
- pest or weed control at 80 g/ha [17, 32]: 100%
- pest or weed control at 80 g/ha ([18]; dosage 80 g/ha): 100%
- pest or weed control at 20 g/ha ([19]; dosage 20 g/ha): 100%
- pest or weed control at 80 g/ha ([19]; dosage 80 g/ha): 100%
- pest or weed control at 80 g/ha [20]: 100%
- pest or weed control at 5 g/ha ([21]; Ipomoea purpurea, 504 h, dosage 5 g/ha): 90%
- pest or weed control at 20 g/ha [21, 33]: 90%
- pest or weed control at 20 g/ha [22, 26]: 100%
- pest or weed control at 80 g/ha [22, 34]: 100%

Source: US12655116B2, “Substituted isophthalic acid diamides” (Bayer Aktiengesellschaft, priority 2020, dated 2026)
